Laboratory results as given in patent US20230165831A1, “METHOD AND COMPOSITION FOR RENDERING CANCER CELLS SUSCEPTIBLE TO TREATMENT BY TARGETED ONCOGENETIC DRIVERS” (IMPACT BIOLIFE SCIENCE, INC., priority 2021, published 2023).

How the values were obtained:
[1] = tested on: ovarian cancer line SK-OV3 cells; experiment: CTG (CellTiter-Glo) cell viability assay, 6×6 combo matrix, 72 h, SK-OV-3; conditions: SK-OV-3;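 note: luminescent signal read after CellTiter-Glo addition, cells exposed to compounds for 72 h at 37 °C under 5% CO2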
[2] = tested on: breast cancer line T47D cells; experiment: CTG (CellTiter-Glo) cell viability assay, 6×6 combo matrix, 72 h, T47D;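 note: luminescence read-out after 72 h at 37 °C under 5% CO2, with medium-only wells as blanks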
Procedure: (§1) 7) Using complete cell medium, adjust the volume of the suspension to achieve a cell concentration.
(§2) Solid compound of cis-platinum was solubilized in PBS to a stock solution of 3.333 mM.
(§3) Final volume is 100 µL per well at this point.
(§4) 1) Incubate the plates at room temperature and away from light for 30 minutes.
(§5) 3) Add 100 µL /well of CellTiter-Glo® Reagent in each well. Avoid light.
(§6) 4) Mix contents for 2 minutes on an orbital shaker.
(§7) 5) Incubate plate at room temperature for 10 minutes to stabilize the luminescent signal.

[3] = tested on: pancreatic cancer line Capan-1 cells; experiment: CTG (CellTiter-Glo) cell viability assay, 6×6 combo matrix, 72 h, Capan-1; type: cell-based; conditions: for Relatively Cell inhibition of vehicle control(%): Capan-1
Procedure: To measure the cell inhibition effect of compounds and synergy effect of test articles on ten (10) cell lines using standard CTG assay.
b. A549, T47D, SK-OV-3, MKN45, SK-Hep-1, HT-29, Capan-1, 786-O and LNCaP cell line, for compounds and vehicle groups, the seeding density of cell lines is 3000 cells/80 µL per well. For blank groups, add 100 µL medium. For PBS groups, add 100 µL PBS.
8) Incubate the U87MG, A549, T47D, SK-OV-3, MKN45, SK-Hep-1, HT-29, Capan-1, 786-O and LNCaP cells overnight at 37° C./5% CO2.
5) Incubate the plates at 37° C./5% CO2 for 72 hours.
6) Read plates in Envision.

[4] = tested on: kidney cancer line 786-O cells; experiment: CTG (CellTiter-Glo) cell viability assay, 6×6 combo matrix, 72 h, 786-O; conditions: for Relatively Cell inhibition of vehicle control(%): 786-O;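 for all read-outs here: luminescence read-out after adding CellTiter-Glo reagent, with cells incubated at 37 °C under 5% CO2 during compound exposure, part of a ten cell line synergy study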
[5] = tested on: Liver cancer line SK-HEP-1 cells; experiment: CTG (CellTiter-Glo) cell viability assay, 6×6 combo matrix, 72 h, SK-Hep-1;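 note: luminescent signal read after 72 h compound exposure at 37 °C under 5% CO2, with medium-only wells serving as blank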
[6] = tested on: prostate adenocarcinoma line LNCap cells; experiment: CTG (CellTiter-Glo) cell viability assay, 6×6 combo matrix, 72 h, LNCaP;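 note: luminescence signal read after adding CellTiter-Glo reagent, with cells exposed to compounds for 72 h at 37 °C under 5% CO2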
[7] = tested on: glioblastoma line U87MG cells; experiment: CTG (CellTiter-Glo) cell viability assay, 6×6 combo matrix, 72 h, U87MG;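 note: U87MG cells seeded at 2000 per well, exposed 72 h, viability read by CellTiter-Glo luminescence, inhibition expressed relative to vehicle-treated wells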
[8] = tested on: lung adenocarcinoma line A549 cells; experiment: CTG (CellTiter-Glo) cell viability assay, 6×6 combo matrix, 72 h, A549; conditions: A549;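 note: luminescent ATP readout with CellTiter-Glo after compound exposure, used to assess growth inhibition and combination synergy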
Procedure: as §1, §2, §3, §4, §5, §6, §7

[9] = tested on: colorectal cancer line HT29 cells; experiment: CTG (CellTiter-Glo) cell viability assay, 6×6 combo matrix, 72 h, HT29; conditions: HT29;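 note: cells exposed to compounds for 72 hours at 37 °C under 5% CO2, then viability read as luminescence after adding CellTiter-Glo Reagent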
[10] = tested on: gastric cancer line MKN45 cells; experiment: CTG (CellTiter-Glo) cell viability assay, 6×6 combo matrix, 72 h, MKN45;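 note: MKN45 cell viability read as CellTiter-Glo luminescence after 72 h culture at 37 °C under 5% CO2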
[11] = cisplatin 0.048 µM only (myricetin plate)
[12] = cisplatin 1.2 µM only (myricetin plate)
[13] = cisplatin 6 µM only (myricetin plate)
[14] = cisplatin 30 µM only (myricetin plate)

Question: Which results are given for `N.N.[Cl][Pt][Cl]` [cisplatin]?
Answer: Relatively Cell inhibition of vehicle control(%) ([1]; Cis 0.048 µM only (LB-1 matrix)): -0.61%; Relatively Cell inhibition of vehicle control(%) ([1]; Cis 0.048 µM only (myricetin matrix)): 0.65%; Relatively Cell inhibition of vehicle control(%) ([1]; Cis 1.2 µM only (LB-1 matrix)): 7.66%; Relatively Cell inhibition of vehicle control(%) ([1]; Cis 1.2 µM only (myricetin matrix)): 17.32%; Relatively Cell inhibition of vehicle control(%) ([1]; Cis 6 µM only (LB-1 matrix)): 50.05%; Relatively Cell inhibition of vehicle control(%) ([1]; Cis 6 µM only (myricetin matrix)): 55.97%; Relatively Cell inhibition of vehicle control(%) ([1]; Cis 30 µM only (LB-1 matrix)): 88.98%; Relatively Cell inhibition of vehicle control(%) ([1]; Cis 30 µM only (myricetin matrix)): 85.03%; Relatively Cell inhibition of vehicle control(%) ([2]; 0.048 µM cisplatin only (LB-1 0)): 1.63%; Relatively Cell inhibition of vehicle control(%) ([2]; 0.048 µM cisplatin only (myricetin 0)): 0.23%; Relatively Cell inhibition of vehicle control(%) ([2]; 1.2 µM cisplatin only (LB-1 0)): -1.67%; Relatively Cell inhibition of vehicle control(%) ([2]; 1.2 µM cisplatin only (myricetin 0)): 0.07%; Relatively Cell inhibition of vehicle control(%) ([2]; 6 µM cisplatin only (LB-1 0)): -0.49%; Relatively Cell inhibition of vehicle control(%) ([2]; 6 µM cisplatin only (myricetin 0)): 11.28%; Relatively Cell inhibition of vehicle control(%) ([2]; 30 µM cisplatin only (LB-1 0)): 22.74%; Relatively Cell inhibition of vehicle control(%) ([2]; 30 µM cisplatin only (myricetin 0)): 36.54%; Relatively Cell inhibition of vehicle control(%) ([3]; Cis 0.048 µM only): -11.79%; Relatively Cell inhibition of vehicle control(%) ([3]; Cis 1.2 µM only): 19.41%; Relatively Cell inhibition of vehicle control(%) ([3]; Cis 6 µM only): 49.43%; Relatively Cell inhibition of vehicle control(%) ([3]; Cis 30 µM only): 79.85%; Relatively Cell inhibition of vehicle control ([3]; cisplatin 0.048 µM only): -4.42%; Relatively Cell inhibition of vehicle control ([3]; cisplatin 1.2 µM only): 16.43%; Relatively Cell inhibition of vehicle control ([3]; cisplatin 6 µM only): 42.34%; Relatively Cell inhibition of vehicle control ([3]; cisplatin 30 µM only): 66.79%; Relatively Cell inhibition of vehicle control(%) ([4]; Cis 0.048 µM only (LB-1 0)): 0.45%; Relatively Cell inhibition of vehicle control(%) ([4]; Cis 1.2 µM only (LB-1 0)): 5.31%; Relatively Cell inhibition of vehicle control(%) ([4]; Cis 6 µM only (LB-1 0)): 60.32%; Relatively Cell inhibition of vehicle control(%) ([4]; Cis 30 µM only (LB-1 0)): 90.04%; Relatively Cell inhibition of vehicle control ([4]; cisplatin 0.048 µM only): -1.09%; Relatively Cell inhibition of vehicle control ([4]; cisplatin 1.2 µM only): 10.33%; Relatively Cell inhibition of vehicle control ([4]; cisplatin 6 µM only): 67.62%; Relatively Cell inhibition of vehicle control ([4]; cisplatin 30 µM only): 86.78%; Relatively Cell inhibition of vehicle control ([5]; cisplatin 0.048 µM only (LB-1 table)): -8.71%; Relatively Cell inhibition of vehicle control ([5]; cisplatin 0.048 µM only (myricetin table)): -7.69%; Relatively Cell inhibition of vehicle control ([5]; cisplatin 1.2 µM only (LB-1 table)): -10.98%; Relatively Cell inhibition of vehicle control ([5]; cisplatin 1.2 µM only (myricetin table)): -2.56%; Relatively Cell inhibition of vehicle control ([5]; cisplatin 6 µM only (LB-1 table)): 29.88%; Relatively Cell inhibition of vehicle control ([5]; cisplatin 6 µM only (myricetin table)): 29.55%; Relatively Cell inhibition of vehicle control ([5]; cisplatin 30 µM only (LB-1 table)): 70.68%; Relatively Cell inhibition of vehicle control ([5]; cisplatin 30 µM only (myricetin table)): 76.71%; Relatively Cell inhibition of vehicle control(%) ([6]; cisplatin 0.048 µM only (LB-1 plate)): -11.07%; Relatively Cell inhibition of vehicle control(%) [6, 11]: -7.42%; Relatively Cell inhibition of vehicle control(%) ([6]; cisplatin 1.2 µM only (LB-1 plate)): -13.28%; Relatively Cell inhibition of vehicle control(%) [6, 12]: -9.21%; Relatively Cell inhibition of vehicle control(%) ([6]; cisplatin 6 µM only (LB-1 plate)): 12.99%; Relatively Cell inhibition of vehicle control(%) [6, 13]: 19.01%; Relatively Cell inhibition of vehicle control(%) ([6]; cisplatin 30 µM only (LB-1 plate)): 53.09%; Relatively Cell inhibition of vehicle control(%) [6, 14]: 61.54%; Relatively Cell inhibition of vehicle control(%) ([7]; cisplatin 0.048 µM only): 1.97%; Relatively Cell inhibition of vehicle control(%) [7, 11]: 0.89%; Relatively Cell inhibition of vehicle control(%) ([7]; cisplatin 1.2 µM only): 11.78%; Relatively Cell inhibition of vehicle control(%) [7, 12]: 15.05%; Relatively Cell inhibition of vehicle control(%) ([7]; cisplatin 6 µM only): 46.78%; Relatively Cell inhibition of vehicle control(%) [7, 13]: 58.90%; Relatively Cell inhibition of vehicle control(%) ([7]; cisplatin 30 µM only): 83.20%; Relatively Cell inhibition of vehicle control(%) [7, 14]: 86.28%; inhibition rate ([8]; 30 µM cisplatin only (LB-1 0), 72 h): 65.03%; Relatively Cell inhibition of vehicle control(%) ([8]; cisplatin 0.048 µM only (myricetin 0)): 1.46%; Relatively Cell inhibition of vehicle control(%) ([8]; cisplatin 1.2 µM only (myricetin 0)): 0.61%; Relatively Cell inhibition of vehicle control(%) ([8]; cisplatin 6 µM only (myricetin 0)): 33.19%; Relatively Cell inhibition of vehicle control(%) ([8]; cisplatin 30 µM only (myricetin 0)): 77.27%; Relatively Cell inhibition of vehicle control(%) ([8]; Cis 0.048 µM only): 0.17%; Relatively Cell inhibition of vehicle control(%) ([8]; Cis 1.2 µM only): 1.57%; Relatively Cell inhibition of vehicle control(%) ([8]; Cis 6 µM only): 33.27%; Relatively Cell inhibition of vehicle control(%) ([8]; Cis 30 µM only): 65.03%; Relatively Cell inhibition of vehicle control(%) ([9]; Cis 0.048 µM only (LB-1 0)): 2.74%; Relatively Cell inhibition of vehicle control(%) ([9]; Cis 0.048 µM only (Myr 0)): -4.21%; Relatively Cell inhibition of vehicle control(%) ([9]; Cis 1.2 µM only (LB-1 0)): 6.85%; Relatively Cell inhibition of vehicle control(%) ([9]; Cis 1.2 µM only (Myr 0)): 6.63%; Relatively Cell inhibition of vehicle control(%) ([9]; Cis 6 µM only (LB-1 0)): 19.05%; Relatively Cell inhibition of vehicle control(%) ([9]; Cis 6 µM only (Myr 0)): 20.8%; Relatively Cell inhibition of vehicle control(%) ([9]; Cis 30 µM only (LB-1 0)): 52.83%; Relatively Cell inhibition of vehicle control(%) ([9]; Cis 30 µM only (Myr 0)): 66.86%; Relatively Cell inhibition of vehicle control(%) ([10]; Cis 0.048 µM only (LB-1 0)): 7.78%; Relatively Cell inhibition of vehicle control(%) ([10]; Cis 0.048 µM only (Myr 0)): 5.10%; Relatively Cell inhibition of vehicle control(%) ([10]; Cis 1.2 µM only (LB-1 0)): 5.53%; Relatively Cell inhibition of vehicle control(%) ([10]; Cis 1.2 µM only (Myr 0)): 22.76%; Relatively Cell inhibition of vehicle control(%) ([10]; Cis 6 µM only (LB-1 0)): 33.22%; Relatively Cell inhibition of vehicle control(%) ([10]; Cis 6 µM only (Myr 0)): 48.92%; Relatively Cell inhibition of vehicle control(%) ([10]; Cis 30 µM only (LB-1 0)): 81.54%; Relatively Cell inhibition of vehicle control(%) ([10]; Cis 30 µM only (Myr 0)): 90.46%
